Bounds are passed on as bounds.

This is an account of results in patent US6010876A, “Clavanins” (The Regents of the University of California, priority 1996, dated 2000).

One test has as its system E. coli ML-35p. The experiment in a line: radial diffusion assay. The test is classed as cell-based. The following applies: for potency relative to Clavanins A and B: E. coli ML-35P, radial diffusion (FIG. 5). The procedure:
(§1) In more detail, the filtrates (≈3.5 mg of protein by BCA) were concentrated to 2 ml by vacuum centrifugation in a Speed Vac Concentrator (Savant Instruments, Hicksville, N.Y.). Gel permeation chromatography was performed on a 1.2×65 cm BioGel P-10 gel permeation column with 5% acetic acid. Preparative continuous acid-urea PAGE electrophoresis was performed as described by Harwig, S. S. L. et al., Anal Biochem (1993) 208:382. Active fractions were pooled and purified by RP-HPLC a 4.6×250 mm Vydac C18 column, using various linear gradients of acetonitrile in 0.1% trifluoroacetic acid (TFA) or […],) heptafluorobutyric acid (HFBA). Throughout this multistep procedure, fractions were lyophilized, concentrated and tested for antimicrobial activity against Listeria monocytogenes strain EGD by a radial diffusion technique described in Lehrer, R. I. et al., J Immunol Methods (1991) 137:167. In these assays, the underlay gels contained 9 mM sodium phosphate and 1 mM sodium citrate buffer, 0.30 mg/ml of trypticase soy broth powder (BBL, Cockeysville, Md.) and […] at a final pH of 6.5.
(§2) In addition to Cecropin P1 and Magainin 1, the activity of Clavanin A(K) was also tested. Clavanin A(K) is identical to Clavanin A except that all of the histidine residues are replaced by lysine. […] The data are provided as minimal bacteriocidal concentrations expressed in μg/ml which are the X-intercepts of radial diffusion assays performed at pH 6.5 in an underlay that contained 10 mM buffer ([…]), 1% agarose and 0.3 mg trypticase soy powder/ml.
(§3) The effect of pH on antimicrobial activity against several organisms was tested in a pH range wherein histidine becomes comparably charged to lysine. FIGS. 6-8 show the results for native or synthetic Clavanin A and synthetic Clavanin A(K) using defensin NP-2 as a control, with respect to L. monocytogenes, E. coli, and C. albicans respectively. The radial diffusion assays were conducted as described in Examples 1 and 3 above.

In a further test the test system is L. monocytogenes EGD. The experiment in a line: radial diffusion assay. The settings on record: for potency relative to Clavanins A and B: L. monocytogenes Strain EGD, radial diffusion (FIG. 5). The test is classed as cell-based, Listeria monocytogenes. The procedure: as §1, §2, §3
A further test relates to E. faecium. The experiment in a line: radial diffusion assay, minimal bactericidal concentration. The test is classed as cell-based. The settings on record: E. faecium (strain not given); X-intercept of radial diffusion assay, pH 6.5. The procedure: as §1, §2
A further test concerns K. pneumoniae 2270. The description is as above. The test is classed as cell-based. The following applies: X-intercept of radial diffusion assay, pH 6.5. The procedure:
as §1, §2

The subject of a further test is E. faecium 94.132 (VR). The description is as above. The following applies: X-intercept of radial diffusion assay, pH 6.5. The test is classed as cell-based. The procedure: as §1, §2
The subject of a further test is E. faecalis CDC 21 (VR). The test is described as above. The test is classed as cell-based. The following applies: X-intercept of radial diffusion assay, pH 6.5. The procedure:
as §1, §2

The subject of the next test is E. coli BAS 894. Described as above. The test is classed as cell-based. The settings on record: X-intercept of radial diffusion assay, pH 6.5. The procedure:
as §1, §2

The next test concerns MRSA 30371. The test is described as above. The test is classed as cell-based. The settings on record: X-intercept of radial diffusion assay, pH 6.5. The procedure: as §1, §2
A further test relates to P. aeruginosa MR 3007. The test is described as above. The following applies: X-intercept of radial diffusion assay, pH 6.5. The test is classed as cell-based. The procedure: as §1, §2
In another test the test system is P. aeruginosa MR 2133. The description is as above. The test is classed as cell-based. The settings on record: X-intercept of radial diffusion assay, pH 6.5. The procedure:
as §1, §2

The test system of the next test is E. coli mcr 106. Described as above. The following applies: X-intercept of radial diffusion assay, pH 6.5. The test is classed as cell-based. The procedure:
as §1, §2

A further test deals with S. typhimurium 14028s. The description is as above. The test is classed as cell-based. The following applies: X-intercept of radial diffusion assay, pH 6.5. The procedure: as §1, §2
A further test has as its system S. typhimurium 7953s. The test is described as above. The test is classed as cell-based. The settings on record: X-intercept of radial diffusion assay, pH 6.5. The procedure: as §1, §2
A further test relates to S. aureus 930918-3. The description is as above. The test is classed as cell-based. The settings on record: X-intercept of radial diffusion assay, pH 6.5. The procedure:
as §1, §2

A further test has as its system P. aeruginosa SBI-N. Described as above. The test is classed as cell-based. The settings on record: X-intercept of radial diffusion assay, pH 6.5. The procedure: as §1, §2
The test system of the next test is MRSA 28841. The test is described as above. The following applies: X-intercept of radial diffusion assay, pH 6.5. The test is classed as cell-based. The procedure:
as §1, §2

In the case of “VFHLL GKIIH HVGNF VY'GFS HVF* [Clavanin C]”, the “potency relative to Clavanins A and B” value in the test on E. coli ML-35p and in the test on L. monocytogenes EGD was 3-5 fold in each case.
For the substance “Cecropin P1: known antimicrobial peptide used for comparison (SWLSKTAKKLENSAKKRISEGIAIAIQGGPR; Cecropin-P1; UniProt P14661 14-44, looked up)”, the minimal bacteriocidal concentration in the test with E. faecium is 6.5 µg/mL; in the test on K. pneumoniae 2270 it was 0.70 µg/mL; in the test with E. faecium 94.132 (VR) it was 7.5 µg/mL; in the test on E. faecalis CDC 21 (VR), > 200 µg/mL; in the test with E. coli BAS 894 it was 0.41 µg/mL; in the test on MRSA 30371 it was > 200 µg/mL. In addition, the minimal bacteriocidal concentration is 0.71 µg/mL in the test on P. aeruginosa MR 3007; 0.51 µg/mL in the test on P. aeruginosa MR 2133; 0.54 µg/mL in the test on E. coli mcr 106; 0.72 µg/mL in the test with S. typhimurium 14028s; 0.43 µg/mL with S. typhimurium 7953s; > 200 µg/mL in the test on S. aureus 930918-3. The minimal bacteriocidal concentration was 0.44 µg/mL in the test on P. aeruginosa SBI-N; > 200 µg/mL in the test on MRSA 28841; 0.64 µg/mL in the test with E. coli ML-35p (E. coli ML-35p, X-intercept of radial diffusion assay, pH 6.5); 6.0 µg/mL with L. monocytogenes EGD (L. monocytogenes EGD, X-intercept of radial diffusion assay, pH 6.5).
As to “AFKLL GRIIH HVGNF VY'GFS HVF* [Clavanin D]”, the “potency relative to Clavanins A and B” value in the test on E. coli ML-35p and in the test on L. monocytogenes EGD was 3-5 fold in each case.
